Results from patent US20210395262A1, “INHIBITORS OF HUMAN IMMUNODEFICIENCY VIRUS REPLICATION” (ViiV HEALTHCARE UK (NO.5) LIMITED, priority 2018, published 2021).
pEC50: −log10 of the molar value.

Assays:
[1] = tested on: recombinant NL4-3 virus; assay: HIV cell culture assay (antiviral activity, luciferase readout in MT-2 cells); assay type: cell-based; settings: MT-2 cells infected for 4-5 days with recombinant NL4-3 virus carrying Renilla luciferase; luciferase activity; read-out: EC50
Summary of the method: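 MT-2 cells infected for 4-5 days with NL4-3 reference virus carrying Renilla luciferase in place of part of nef, in presence of serial compound dilutions. Luciferase activity read with live-cell substrate. EC50 derived from median effect equation, slope parameter m.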

[2] = tested on: uninfected MT2 cells; assay: Compound cytotoxicity, XTT-based colorimetric assay; assay type: cell-based; settings: uninfected MT2 cells, day 4, XTT
Summary of the method: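 Run under the antiviral-assay protocol but without virus. Viability was read on day 4 and CC50 values were derived from the readout.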

C[C@@H]1CN(c2ccc3c(=O)n(-c4ccc(Cl)c5c(NS(C)(=O)=O)nn(CC(F)F)c45)c([C@H](Cc4cc(F)cc(F)c4)NC(=O)Cn4nc(C(F)F)c5c4C(F)(F)[C@@H]4C[C@H]54)nc3c2)C[C@H](C)O1 [Example 8, N—((S)-1-((3P)-3-(4-chloro-1-(2,2-difluoroethyl)-3-(methylsulfonamido)-1H-indazol-7-yl)-7-((2S,6R)-2,6-dimethylmorpholino)-4-oxo-3,4-dihydroquinazolin-2-yl)-2-(3,5-difluorophenyl)ethyl)-2-((3bS,4aR)-3-(difluoromethyl)-5,5-difluoro-3b,4,4a,5-tetrahydro-1H-cyclopropa[3,4]cyclopenta[1,2-c]pyrazol-1-yl)acetamide]
pEC50 [1]: 10.03
CC50 [2]: > 500 nM
